According to US7141590B2, “Pharmaceutical uses and synthesis of nicotinanilide-N-oxides” (UCB SA, priority 2000, dated 2006):

Assays:
[1] = target: T1, IL-8 type β receptor (IL-8Rβ) (Homo sapiens, UniProt P25025); assay: [125I] IL-8 binding assay (WGA-SPA beads, IL-8Rβ membranes); settings: 20 uM compound; [125I] IL-8, IL-8Rβ membranes
T1 construct: purchased BioSignal, Montreal, Canada; host or cells: Sf9 cells
T1 sequence (P25025 1-360): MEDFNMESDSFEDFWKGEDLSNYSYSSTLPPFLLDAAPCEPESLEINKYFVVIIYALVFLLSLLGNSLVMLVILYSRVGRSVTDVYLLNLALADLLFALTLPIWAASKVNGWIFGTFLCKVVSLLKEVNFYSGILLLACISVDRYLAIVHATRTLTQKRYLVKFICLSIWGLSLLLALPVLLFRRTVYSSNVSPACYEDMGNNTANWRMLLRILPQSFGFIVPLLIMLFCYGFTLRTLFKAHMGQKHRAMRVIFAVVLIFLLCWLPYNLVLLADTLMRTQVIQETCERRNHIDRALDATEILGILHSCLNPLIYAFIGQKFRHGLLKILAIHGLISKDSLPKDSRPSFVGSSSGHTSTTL
Description: IL-8 (human recombinant) was obtained from NEN Life Science Products, Inc., Boston, Mass., with specific activity of 2200 Ci/mmol. Recombinant human IL-8 was obtained from R&D Systems, Minneapolis, Minn. IL-8 type β receptor membranes were prepared from […] co-expressed with Gαi3β1γ2 proteins by BioSignal™, Montreal, Canada. Wheat Germ Agglutinin Scintillation Proximity Assay Beads were obtained from Amersham Pharmacia Biotech, Piscataway, N.J. All assays were performed in a 96-well, solvent resistant, white PicoPlate obtained from Packard Instruments. […] The assay was initiated by the addition of WGA-SPA beads in 25 mM Hepes (pH 7.4) containing 2 mM CaCl2 and 1 mM MgCl2. After 4–6 hours of gentle agitation at room temperature, the plate was counted on the Packard TopCount liquid scintillation counter.

[2] = system: polymorphonuclear neutrophils (PMNs); assay: GRO-α driven chemotaxis assay with PMNs (ChemoTx plate); assay type: cell-based; settings: 20 μM compound; 50 nM GRO-α, human PMNs
Description: Peripheral blood from healthy human volunteers was collected into heparin, diluted in an equal volume of PBS, layered over Ficoll-Paque Plus (Pharmacia Biotech, Uppsala, Sweden), and spun at 400×g for 30 min. The PMN rich fraction was removed and residual erythrocytes were lysed with hypotonic saline. The polymorphonuclear neutrophils (PMNs) were washed once with assay buffer (Dulbecco's PBS containing divalent cations and 0.1% endotoxin-free BSA), and resuspended at 1E7 cells/mL in the same buffer. PMNs were loaded with 5 μM calcein AM (Molecular Probes, Eugene, Oreg.), washed twice and resuspended in assay buffer.
Growth Regulatory Oncogene a (GRO-α) driven chemotaxis assays were performed according to the following protocol. […] Test compounds were dissolved in DMSO (100%) at 20 mM and diluted in assay buffer to the desired concentrations; final DMSO concentration was 0.2%. Neutrophil migration proceeded for 40 min at 37° C. in a humidified incubator with 5% CO2. After removing nonmigrated cells from the top of the plate, migrated cells were quantified by reading fluorescence on a Wallac Victor.
The ratio of the positive to negative controls represents the chemotactic index of the cells. The results from this assay are reported in Tables 3–5, under the column headings IL-8 and GRO-α, and under the sub-column headings ChTx (for chemotaxis).

| SMILES | IL-8 Binding @ 20 uM, % [1] | GRO-α ChTx @ 20 μM, % [2] |
| --- | --- | --- |
| CN(C)c1ccc(C(=O)Nc2ccc(F)cc2)c[n+]1[O-] | * (“*” for % values of less than or equal to 40) | – |
| O=C(Nc1ccc(F)cc1)c1ccc(NCc2ccccc2)[n+]([O-])c1 | * (“*” for % values of less than or equal to 40) | * (“*” for % values of less than or equal to 40) |
| O=C(Nc1ccc(F)cc1)c1ccc(Nc2ccccc2)[n+]([O-])c1 | ** (“**” for % values greater than 40) | * (“*” for % values of less than or equal to 40) |
| CNc1ccc(C(=O)Nc2ccc(F)cc2)c[n+]1[O-] | ** (“**” for % values greater than 40) | ** (“**” for % values greater than 40) |
| O=C(Nc1ccc(F)cc1)c1ccc(-n2ccnc2)[n+]([O-])c1 | * (“*” for % values of less than or equal to 40) | * (“*” for % values of less than or equal to 40) |
| O=C(Nc1ccc(F)cc1)c1ccc(NCCO)[n+]([O-])c1 | * (“*” for % values of less than or equal to 40) | ** (“**” for % values greater than 40) |
| CCCCCNc1ccc(C(=O)Nc2ccc(F)cc2)c[n+]1[O-] | * (“*” for % values of less than or equal to 40) | ** (“**” for % values greater than 40) |
| O=C(Nc1ccc(F)cc1)c1ccc(N2CCCC2)[n+]([O-])c1 | * (“*” for % values of less than or equal to 40) | * (“*” for % values of less than or equal to 40) |
| Nc1ccc(C(=O)Nc2ccc(F)cc2)c[n+]1[O-] | * (“*” for % values of less than or equal to 40) | * (“*” for % values of less than or equal to 40) |
| COc1ccc(C(=O)Nc2ccc(F)cc2)c[n+]1[O-] | * (“*” for % values of less than or equal to 40) | ** (“**” for % values greater than 40) |
| CSc1ccc(C(=O)Nc2ccc(F)cc2)c[n+]1[O-] | ** (“**” for % values greater than 40) | ** (“**” for % values greater than 40) |
| CCSc1ccc(C(=O)Nc2ccc(F)cc2)c[n+]1[O-] | * (“*” for % values of less than or equal to 40) | * (“*” for % values of less than or equal to 40) |
| CC(C)S(=O)(=O)c1ccc(C(=O)Nc2ccc(F)cc2)c[n+]1[O-] | ** (“**” for % values greater than 40) | ** (“**” for % values greater than 40) |
| O=C(O)c1cccc(S(=O)(=O)c2ccc(C(=O)Nc3ccc(F)cc3)c[n+]2[O-])c1 | ** (“**” for % values greater than 40) | * (“*” for % values of less than or equal to 40) |
| O=C(O)CCS(=O)(=O)c1ccc(C(=O)Nc2ccc(F)cc2)c[n+]1[O-] | ** (“**” for % values greater than 40) | * (“*” for % values of less than or equal to 40) |
| O=C(Nc1ccc(F)cc1)c1ccc(S(=O)(=O)c2ccc(F)cc2)[n+]([O-])c1 | ** (“**” for % values greater than 40) | ** (“**” for % values greater than 40) |
| Cc1cccc(S(=O)(=O)c2ccc(C(=O)Nc3ccc(F)cc3)c[n+]2[O-])c1 | * (“*” for % values of less than or equal to 40) | ** (“**” for % values greater than 40) |
| Cc1ccc(C(=O)Nc2ccc(F)cc2)c[n+]1[O-] | *(2) (“*” for % values of less than or equal to 40) | * (“*” for % values of less than or equal to 40) |
| O=C(Nc1cccc(Br)c1)c1ccc(Cl)[n+]([O-])c1 | * (“*” for % values of less than or equal to 40) | ** (“**” for % values greater than 40) |
| O=C(Nc1ccc(F)c(C(F)(F)F)c1)c1ccc(Cl)[n+]([O-])c1 | * (“*” for % values of less than or equal to 40) | ** (“**” for % values greater than 40) |
| O=C(Nc1cccc(I)c1)c1ccc(Cl)[n+]([O-])c1 | * (“*” for % values of less than or equal to 40) | ** (“**” for % values greater than 40) |

| SMILES | IL-8 Binding @ 20 uM, % [1] | GRO-α ChTx @ 20 μM, % [2] |
| --- | --- | --- |
| O=C(Nc1ccc(OC(F)(F)F)cc1)c1ccc(Cl)[n+]([O-])c1 | * (“*” for % values of less than or equal to 40) | * (“*” for % values of less than or equal to 40) |
| O=C(Nc1ccc(OCc2ccccc2)cc1)c1ccc(Cl)[n+]([O-])c1 | * (“*” for % values of less than or equal to 40) | ** (“**” for % values greater than 40) |
| O=C(Nc1ccc(I)c(Cl)c1)c1ccc(Cl)[n+]([O-])c1 | * (“*” for % values of less than or equal to 40) | ** (“**” for % values greater than 40) |
| Cc1cc(NC(=O)c2ccc(Cl)[n+]([O-])c2)ccc1Br | * (“*” for % values of less than or equal to 40) | ** (“**” for % values greater than 40) |
| CC(C)(C)OC(=O)c1cccc(NC(=O)c2ccc(Cl)[n+]([O-])c2)c1 | – | ** (“**” for % values greater than 40) |
| O=C(O)c1cccc(NC(=O)c2ccc(Cl)[n+]([O-])c2)c1 | – | * (“*” for % values of less than or equal to 40) |
| COc1ccc(C(=O)O)cc1NC(=O)c1ccc(Cl)[n+]([O-])c1 | – | ** (“**” for % values greater than 40) |
| O=C(Nc1cc(F)c(F)c(C(=O)O)c1F)c1ccc(Cl)[n+]([O-])c1 | – | * (“*” for % values of less than or equal to 40) |
| O=C(Nc1ccc(O)c(C(=O)O)c1)c1ccc(Cl)[n+]([O-])c1 | – | * (“*” for % values of less than or equal to 40) |
| O=C(Nc1ccc(F)c(F)c1C(=O)O)c1ccc(Cl)[n+]([O-])c1 | – | ** (“**” for % values greater than 40) |
| CCCCc1ccc(NC(=O)c2ccc(Cl)[n+]([O-])c2)cc1 | – | ** (“**” for % values greater than 40) |
| COC(=O)c1ccc(NC(=O)c2ccc(Cl)[n+]([O-])c2)cc1 | – | ** (“**” for % values greater than 40) |
| O=C(Nc1cccc(F)c1F)c1ccc(Cl)[n+]([O-])c1 | – | ** (“**” for % values greater than 40) |
| CSc1ccccc1NC(=O)c1ccc(Cl)[n+]([O-])c1 | – | ** (“**” for % values greater than 40) |
| CSc1ccc(NC(=O)c2ccc(Cl)[n+]([O-])c2)cc1 | – | ** (“**” for % values greater than 40) |
| N#Cc1cccc(NC(=O)c2ccc(Cl)[n+]([O-])c2)c1 | – | ** (“**” for % values greater than 40) |
| COc1cc(NC(=O)c2ccc(Cl)[n+]([O-])c2)cc(OC)c1OC | – | * (“*” for % values of less than or equal to 40) |
| O=C(Nc1ccc(F)cc1)c1ccc(Cl)[n+]([O-])c1Cl | – | ** (“**” for % values greater than 40) |
| Cc1ccc(C(=O)Nc2ccc(F)cc2)c(Cl)[n+]1[O-] | – | * (“*” for % values of less than or equal to 40) |
| O=C(Nc1ccc(F)cc1)c1ccc(Br)[n+]([O-])c1 [Br, 6-BROMO-N-(4-FLUORO-PHENYL)-1-OXY-NICOTINAMIDE] | – | ** (“**” for % values greater than 40) |
| O=C(Nc1ccc(F)cc1)c1cc(Cl)c(Cl)[n+]([O-])c1 [drawing 126] | – | ** (“**” for % values greater than 40) |
